# Test results from patent US7811760B2, “Vector and method for detecting the change in transcription amount” (priority 2006, dated 2010).
# Experiments:
# SD-line rat AhR = target: T1, SD-line rat AhR (Rattus norvegicus, UniProt P41738, Q794H); test: Reporter gene assay in Neuro2a with pTHE100×3/Luc and pcDNA4-rAhR; type: cell-based; conditions: 1 to 10,000 pM TCDD
# T1 construct: The SD-line rat AhR gene-coding region was amplified from the reverse-transcribed sample by means of PCR; V5-His (C-terminal tag of vector pcDNA4/V5-His B); expressed in transfected cells; host or cells: mouse neuroblastoma Neuro2a, transient transfection with LIPOFECTAMINE 2000
# T1 sequence (P41738 10-853 Q794H): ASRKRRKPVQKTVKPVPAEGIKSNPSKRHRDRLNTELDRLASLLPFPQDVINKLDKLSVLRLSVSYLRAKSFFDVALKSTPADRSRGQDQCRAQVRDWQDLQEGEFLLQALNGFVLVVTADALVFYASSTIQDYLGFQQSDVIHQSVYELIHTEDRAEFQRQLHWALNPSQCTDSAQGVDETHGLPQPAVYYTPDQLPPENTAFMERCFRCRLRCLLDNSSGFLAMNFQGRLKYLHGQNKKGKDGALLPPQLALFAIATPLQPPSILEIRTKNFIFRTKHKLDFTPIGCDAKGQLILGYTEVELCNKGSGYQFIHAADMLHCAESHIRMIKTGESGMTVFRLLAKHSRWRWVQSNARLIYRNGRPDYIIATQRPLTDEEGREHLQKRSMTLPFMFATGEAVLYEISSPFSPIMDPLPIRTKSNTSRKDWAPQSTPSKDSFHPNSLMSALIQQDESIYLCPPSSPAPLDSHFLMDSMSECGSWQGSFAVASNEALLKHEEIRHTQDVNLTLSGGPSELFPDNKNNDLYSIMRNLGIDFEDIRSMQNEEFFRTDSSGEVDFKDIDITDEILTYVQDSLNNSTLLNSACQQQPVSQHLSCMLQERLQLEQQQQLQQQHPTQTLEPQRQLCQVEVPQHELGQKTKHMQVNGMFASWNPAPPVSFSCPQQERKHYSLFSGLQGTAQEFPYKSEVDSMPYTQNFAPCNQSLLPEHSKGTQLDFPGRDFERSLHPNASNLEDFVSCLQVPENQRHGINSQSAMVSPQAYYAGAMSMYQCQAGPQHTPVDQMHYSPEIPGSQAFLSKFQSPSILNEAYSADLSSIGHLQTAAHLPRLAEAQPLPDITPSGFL
# Excerpt: (§1) In Example 8, the vector pTHE100×3/Luc (Example 7, FIG. 7A) was used as the vector containing a reporter gene, and Neuro2a was used as the cell.
# (§2) In this Example, a combination of pcDNA4-rAhR (Example 1) containing the SD-line rat AhR gene and pcDNA4/V5-His/lacZ (Invitrogen), as well as a combination of PGV-mAhR (Example 1) containing the C57/BL6-line mouse AhR gene and pcDNA4/V5-His/lacZ were used as the vectors for introducing into the cell together with pTHE100×3/Luc. pcDNA4-rAhR was introduced into the cell for constitutive expression of the SD-line rat AhR (SEQ ID No: 10); PGV-mAhR was introduced into the cell for constitutive expression of C57/BL6-line mouse AhR (SEQ ID No: 11); and pcDNA4/V5-His/lacZ was introduced into the cell for normalization of the transfection efficiency of the vector.
# (§3) The vectors were introduced into the cell by using LIPOFECTAMINE 2000, similarly to the method described in Example 3. After the above vectors were introduced into the cell, the obtained cell was exposed to 1 to 10,000 pM of TCDD to examine the increase in expression amount of the reporter gene in response to TCDD.
# C57/BL6-line mouse AhR = target: T2, C57/BL6-line mouse AhR (Mus musculus, UniProt P30561); test: Reporter gene assay in Neuro2a with pTHE100×3/Luc and PGV-mAhR; type: cell-based; conditions: 1 to 10,000 pM TCDD
# T2 construct: The AhR gene-coding region of the C57/BL6-line mouse was amplified from the reverse-transcribed sample by means of PCR; expressed in transfected cells; host or cells: mouse neuroblastoma Neuro2a, transient transfection with LIPOFECTAMINE 2000
# T2 sequence (P30561 10-805 M324I/F348L/P471L/N533S/M589L/T758A limits assumed): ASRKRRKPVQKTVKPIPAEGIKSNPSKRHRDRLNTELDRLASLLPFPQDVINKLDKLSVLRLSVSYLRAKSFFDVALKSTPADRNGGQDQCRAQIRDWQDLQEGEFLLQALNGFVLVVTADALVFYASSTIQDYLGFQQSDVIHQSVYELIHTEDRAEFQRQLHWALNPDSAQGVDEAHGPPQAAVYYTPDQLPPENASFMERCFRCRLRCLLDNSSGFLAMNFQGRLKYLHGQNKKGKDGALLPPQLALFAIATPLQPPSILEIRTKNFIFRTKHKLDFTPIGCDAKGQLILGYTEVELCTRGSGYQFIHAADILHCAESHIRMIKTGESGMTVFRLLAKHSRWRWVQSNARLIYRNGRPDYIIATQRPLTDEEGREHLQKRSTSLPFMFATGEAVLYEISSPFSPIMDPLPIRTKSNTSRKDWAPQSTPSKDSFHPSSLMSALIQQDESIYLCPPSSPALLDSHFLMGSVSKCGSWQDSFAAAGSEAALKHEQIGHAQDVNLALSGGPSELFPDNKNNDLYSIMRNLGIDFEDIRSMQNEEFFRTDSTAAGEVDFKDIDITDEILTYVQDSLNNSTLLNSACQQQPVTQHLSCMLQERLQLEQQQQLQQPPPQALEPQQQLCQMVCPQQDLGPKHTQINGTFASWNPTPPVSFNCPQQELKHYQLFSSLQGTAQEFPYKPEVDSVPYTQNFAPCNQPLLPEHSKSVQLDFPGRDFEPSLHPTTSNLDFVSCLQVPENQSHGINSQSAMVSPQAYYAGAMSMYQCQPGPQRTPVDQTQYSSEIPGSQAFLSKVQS
# Excerpt: as §1, §2, §3
compound,measurement,setting,value
"Clc1cc2c(cc1Cl)Oc1cc(Cl)c(Cl)cc1O2 [TCDD, 2,3,7,8-tetrachlorodibenzo-p-dioxine]","transcriptional response, rat AhR compared with mouse AhR",SD-line rat AhR,transcriptional response greater than that of the C57/BL6-line mouse AhR
same,induction of transcription of the reporter gene in response to TCDD,SD-line rat AhR; SD-line rat AhR,effective in inducing transcription of the reporter gene
same,induction of transcription of the reporter gene in response to TCDD,C57/BL6-line mouse AhR,effective in inducing transcription of the reporter gene
